According to US11447525B2 (NIIGATA UNIVERSITY, priority 2018, dated 2022):
Non-standard residues stand in square brackets, D forms with d. Residues, ends and D or L forms follow the SMILES beside them. No end group written: not given here. *: point of attachment. 5FAM = O=C1OC2(c3ccc(O)cc3Oc3cc(O)ccc32)c2ccc(C(=O)*)cc21; NMeR = CN[C@@H](CCCNC(=N)N)C(=O)O

Assay: Degradation test by human blood plasma, MALDI-TOFMS analysis
Format: in vitro ADME
Details: for remaining at 5 min / remaining at 10 min / remaining at 20 min / remaining at 0.5 h / remaining at 1 h / remaining at 2 h: read-out: degradation resistance (proportion of the peptide retained without degradation); for proportion of each peptide when the peak area for the two or more peptides is deemed to be 100%: Ld peptide added to 50% by mass human blood plasma; for proportion of peak area relative to the total peak area in the MALDI-TOFMS analysis: FAM-L peptide added to 50% by mass human blood plasma
Procedure: Specifically, a peptide composed of the amino acid sequence represented by SEQ ID NO: 1 (hereafter sometimes referred to as “PCPP11”) was added to human blood plasma having a concentration of 50% by mass, the mixture was sampled immediately after starting the degradation test (after 0 minutes), and then after 5 minutes, after 10 minutes, after 20 minutes, after 30 minutes, after 60 minutes and after 120 minutes, and the samples were analyzed by MALDI-TOFMS (Matrix Assisted Laser Desorption/Ionization-Time Of Flight Mass Spectrometry). In Table 2, “UK” is an abbreviation for “unknown”. Further, the No. shown for each peptide in Table 2 corresponds with the numerical value recorded on the peaks of the graphs shown in FIG. 1.
Each of the peptides described above was added to human blood plasma having a concentration of 50% by mass, the resulting mixture was sampled immediately after starting the degradation test (after 0 minutes), and then after 5 minutes, after 10 minutes, after 20 minutes, after 30 minutes, after 60 minutes and after 120 minutes, and the samples were analyzed by MALDI-TOFMS. The results are shown in FIGS. 2 to 6 and Tables 4 to 6 shown below. Furthermore, the data for the degradation test by human blood plasma using PCPP11 from Reference Example 1 and the degradation tests by human blood plasma using each of the above peptides are collated in FIG. 7 and Table 7. The SEQ ID NO listed for the FAM-labeled peptide represents the SEQ ID NO of the peptide portion. Further, the No. shown for each peptide in Tables 4 to 6 corresponds with the numerical value recorded on the peaks of the graphs shown in FIGS. 2 to 6. In each table, in those cases where the numerical values are shown separated into an upper row and a lower row, the upper row value indicates the proportion (%) of peak area for two or more peptides relative to the total peak area in the MALDI-TOFMS analysis. On the other hand, the lower row value indicates the proportion (%) of each peptide when the peak area for the two or more peptides is deemed to be 100%. Moreover, for example, for the peptide No. 9 shown in Table 4, the left-side “70.0%” indicates the proportion (%) of the peptide No. 9 when the total peak area for the peptides No. 9 to 11 is deemed to be 100%, whereas the right-side “65%” indicates the proportion (%) of the peptide No. 9 relative to the total peak area in the MALDI-TOFMS analysis. This system is also used in the following tables.

[1] = 50% by mass human blood plasma, 5 min
[2] = 50% by mass human blood plasma, 10 min
[3] = 50% by mass human blood plasma, 20 min
[4] = 50% by mass human blood plasma, 30 min
[5] = 50% by mass human blood plasma, 60 min
[6] = 50% by mass human blood plasma, 120 min
[7] = 50% by mass human blood plasma, Start

Row | Molecule | degradation resistance compared with the stand-alone PCPP11 and the FAM-PCPP11 (50% by mass human blood plasma) | remaining at 5 min [1] | remaining at 10 min [2] | remaining at 20 min [3] | remaining at 0.5 h [4] | remaining at 1 h [5] | remaining at 2 h [6] | degradation resistance (proportion of the peptide retained without degradation) [7] | also measured
1 | C[C@@H](O)[C@H](NC(=O)[C@@H](NC(=O)[C@@H]1CCCN1C(=O)[C@H](CCCNC(=N)N)NC(=O)[C@H](CCCNC(=N)N)NC(=O)CNC(=O)[C@@H]1CCCN1C(=O)[C@H](CCCCN)NC(=O)[C@H](Cc1c[nH]cn1)NC(=O)[C@H](Cc1c[nH]c2ccccc12)NC(=O)[C@@H](NC(=O)[C@@H](NC(=O)[C@@H]1CCCN1C(=O)[C@H](CCCNC(=N)N)N(C)C(=O)[C@@H](N)CCCNC(=N)N)[C@@H](C)O)[C@@H](C)O)[C@@H](C)O)C(=O)N[C@@H](Cc1c[nH]c2ccccc12)C(=O)N[C@@H](Cc1c[nH]cn1)C(=O)N[C@@H](CCCCN)C(=O)N1CCC[C@H]1C(=O)O [No. 18] (H-R[NMeR]PTTWHKPGRRPTTWHKP-OH; N-terminus and C-terminus assumed) | superior degradation resistance | – | – | – | – | – | – | – | –
2 | RRPTTWHKP [No. 1, reference compound] | – | – | – | – | – | – | – | – | persistence time (the time of stable existence) (50% by mass human blood plasma): less than 20 minutes
3 | C[C@H](O)[C@@H](NC(=O)[C@@H](Cc1c[nH]c2ccccc12)NC(=O)[C@@H](Cc1c[nH]cn1)NC(=O)[C@@H](CCCCN)NC(=O)[C@H]1CCCN1C(=O)CNC(=O)[C@@H]1CCCN1C(=O)[C@H](CCCCN)NC(=O)[C@H](Cc1c[nH]cn1)NC(=O)[C@H](Cc1c[nH]c2ccccc12)NC(=O)[C@@H](NC(=O)[C@@H](NC(=O)[C@@H]1CCCN1C(=O)[C@H](CCCNC(=N)N)N(C)C(=O)[C@@H](N)CCCNC(=N)N)[C@@H](C)O)[C@@H](C)O)C(=O)N[C@@H](C(=O)N1CCC[C@@H]1C(=O)N[C@H](CCCNC(=N)N)C(=O)N[C@H](CCCNC(=N)N)C(=O)O)[C@H](C)O [compound 19] (H-R[NMeR]PTTWHKPG[dP][dK][dH][dW][dT][dT][dP][dR][dR]-OH; N-terminus and C-terminus assumed) | – | 100% | 100% | 100% | 100% | 100% | 100% | 100% | –
4 | RRPTTWHKPGRRPTTWHKPGRRPTTWHKP [No. 12] | superior degradation resistance | – | – | – | – | – | – | – | degradation products observed (50% by mass human blood plasma, within 120 minutes of starting the test): no degradation products were observed
5 | C[C@H](O)[C@@H](NC(=O)[C@@H](Cc1c[nH]c2ccccc12)NC(=O)[C@@H](Cc1c[nH]cn1)NC(=O)[C@@H](CCCCN)NC(=O)[C@H]1CCCN1C(=O)CNC(=O)[C@@H]1CCCN1C(=O)[C@H](CCCCN)NC(=O)[C@H](Cc1c[nH]cn1)NC(=O)[C@H](Cc1c[nH]c2ccccc12)NC(=O)[C@@H](NC(=O)[C@@H](NC(=O)[C@@H]1CCCN1C(=O)[C@H](CCCNC(=N)N)NC(=O)[C@@H](N)CCCNC(=N)N)[C@@H](C)O)[C@@H](C)O)C(=O)N[C@@H](C(=O)N1CCC[C@@H]1C(=O)N[C@H](CCCNC(=N)N)C(=O)N[C@H](CCCNC(=N)N)C(=O)O)[C@H](C)O [No. 15] (H-RRPTTWHKPG[dP][dK][dH][dW][dT][dT][dP][dR][dR]-OH; N-terminus and C-terminus assumed) | superior degradation resistance | – | – | – | – | – | – | – | –
6 | RRPTTWHKPGRRPTTWHKP [No. 9] | superior degradation resistance | – | – | – | – | – | – | – | –

Second part, led by results:

Row | degradation resistance compared with the stand-alone PCPP11 and the FAM-PCPP11 (50% by mass human blood plasma) | remaining at 5 min [1] | remaining at 10 min [2] | remaining at 20 min [3] | remaining at 0.5 h [4] | remaining at 1 h [5] | remaining at 2 h [6] | degradation resistance (proportion of the peptide retained without degradation) [7] | Molecule | also measured
7 | – | 100% | 100% | 94% | 84% | 58% | 32% | 100% | C[C@H](O)[C@@H](NC(=O)[C@@H](Cc1c[nH]c2ccccc12)NC(=O)[C@@H](Cc1c[nH]cn1)NC(=O)[C@@H](CCCCN)NC(=O)[C@H]1CCCN1C(=O)CNC(=O)[C@@H]1CCCN1C(=O)[C@H](CCCCN)NC(=O)[C@H](Cc1c[nH]cn1)NC(=O)[C@H](Cc1c[nH]c2ccccc12)NC(=O)[C@@H](NC(=O)[C@@H](NC(=O)[C@@H]1CCCN1C(=O)[C@H](CCCNC(=N)N)NC(=O)[C@@H](N)CCCNC(=N)N)[C@@H](C)O)[C@@H](C)O)C(=O)N[C@@H](C(=O)N1CCC[C@@H]1C(=O)N[C@H](CCCNC(=N)N)C(=O)N[C@H](CCCNC(=N)N)C(=O)O)[C@H](C)O [compound 15] (H-RRPTTWHKPG[dP][dK][dH][dW][dT][dT][dP][dR][dR]-OH; N-terminus and C-terminus assumed) | proportion of each peptide when the peak area for the two or more peptides is deemed to be 100% (5 min): (89.0%); proportion of each peptide when the peak area for the two or more peptides is deemed to be 100% (10 min): (82.2%); proportion of each peptide when the peak area for the two or more peptides is deemed to be 100% (20 min): (71.9%); proportion of each peptide when the peak area for the two or more peptides is deemed to be 100% (30 min): (62.3%); proportion of each peptide when the peak area for the two or more peptides is deemed to be 100% (60 min): (43.0%); proportion of each peptide when the peak area for the two or more peptides is deemed to be 100% (120 min): (24.6%); proportion of each peptide when the peak area for the two or more peptides is deemed to be 100% (Start): (96.9%)
8 | – | 100% | 100% | 100% | 100% | 100% | – | 100% | RRPTTWHKPGRRPTTWHKPGRRPTTWHKP [compound 12] | –
9 | – | 100% | 90% | 92% | 87% | 73% | – | 100% | C[C@@H](O)[C@H](NC(=O)[C@@H](NC(=O)[C@@H]1CCCN1C(=O)[C@H](CCCNC(=N)N)NC(=O)[C@H](CCCNC(=N)N)NC(=O)c1ccc2c(c1)C(=O)OC21c2ccc(O)cc2Oc2cc(O)ccc21)[C@@H](C)O)C(=O)N[C@@H](Cc1c[nH]c2ccccc12)C(=O)N[C@@H](Cc1c[nH]cn1)C(=O)N[C@@H](CCCCN)C(=O)N1CCC[C@H]1C(=O)O [compound 13] (5FAM-RRPTTWHKP-OH; C-terminus assumed) | proportion of peak area relative to the total peak area in the MALDI-TOFMS analysis (5 min): 47.2%; proportion of peak area relative to the total peak area in the MALDI-TOFMS analysis (10 min): 43.2%; proportion of peak area relative to the total peak area in the MALDI-TOFMS analysis (20 min): 45.6%; proportion of peak area relative to the total peak area in the MALDI-TOFMS analysis (30 min): 43.6%; proportion of peak area relative to the total peak area in the MALDI-TOFMS analysis (60 min): 37.4%; proportion of peak area relative to the total peak area in the MALDI-TOFMS analysis (120 min): 13.5%; proportion of peak area relative to the total peak area in the MALDI-TOFMS analysis (Start): 47.6%
10 | – | 93% | – | – | – | – | – | 100% | RRPTTWHKP [compound 1] | –
11 | – | – | – | – | – | – | 100% | – | RRPTTWHKPGRRPTTWHKPGRRPTTWHKP [Peptide 12] | –
12 | – | – | 67% | – | – | – | – | – | RRPTTWHKP [Peptide 1] | –
13 | – | 100% | 100% | 100% | 100% | 100% | 100% | 100% | C[C@@H](O)[C@H](NC(=O)[C@@H](NC(=O)[C@@H]1CCCN1C(=O)[C@H](CCCNC(=N)N)NC(=O)[C@H](CCCNC(=N)N)NC(=O)CNC(=O)[C@@H]1CCCN1C(=O)[C@H](CCCCN)NC(=O)[C@H](Cc1c[nH]cn1)NC(=O)[C@H](Cc1c[nH]c2ccccc12)NC(=O)[C@@H](NC(=O)[C@@H](NC(=O)[C@@H]1CCCN1C(=O)[C@H](CCCNC(=N)N)N(C)C(=O)[C@@H](N)CCCNC(=N)N)[C@@H](C)O)[C@@H](C)O)[C@@H](C)O)C(=O)N[C@@H](Cc1c[nH]c2ccccc12)C(=O)N[C@@H](Cc1c[nH]cn1)C(=O)N[C@@H](CCCCN)C(=O)N1CCC[C@H]1C(=O)O [compound 18] (H-R[NMeR]PTTWHKPGRRPTTWHKP-OH; N-terminus and C-terminus assumed) | –
